From publication PMC7078479, “Sulfamoyl Heteroarylcarboxylic Acids as Promising Metallo-β-Lactamase Inhibitors for Controlling Bacterial Carbapenem Resistance” (mBio, 2020)
Like-named read-outs stand apart in the source and are kept apart here.

Legend:
[1] = test system: IMP-1-producing E. coli NUBL-24; experiment: Time-kill assay; assay type: cell-based, Escherichia coli; conditions: 10 μg/ml SFC added to 1 μg/ml MPM, 6 h
Description: The initial density of E. coli NUBL-24 (blaIMP-1) (MPM MIC, 8 μg/ml) was adjusted to approximately 5 × 10^6 CFU/ml. Either MPM (1 μg/ml) alone or SFC (10 μg/ml) alone or a combination of the two was added to the bacterial solution, and then incubation was performed at 37°C. LB broth containing only bacteria was used as a control. At 0, 2, 4, 6, and 24 h after adding the agents, an aliquot of bacterial culture was removed, diluted, and spotted on LB agar plates to count the viable bacterial cells. The detection limit was set at 200 CFU/ml.

[2] = biological target: T1, angiotensin-converting enzyme (ACE) (Homo sapiens, UniProt P12821); experiment: ACE inhibition (ACE Kit-WST); assay type: biochemical; conditions: human metalloenzyme
T1 construct: purchased Dojindo Laboratories ACE Kit-WST
Description: (§1) The serine–β-lactamases (1 nM) TLA-3, CMY-2, and OXA-48 were mixed with SFC in 100 mM phosphate buffer (pH 7.0) and incubated for 5 min at 30°C. Nitrocefin was added to reach a concentration of 100 μM, and the velocity of nitrocefin hydrolysis was monitored at 482 nm. Avibactam (MedKoo Bioscience, Morrisville, NC) was used as an inhibitor for serine–β-lactamases. The inhibitory effect of SFC against ACE was evaluated using ACE Kit-WST (Dojindo Laboratories, Kumamoto, Japan). The residual ACE activity was calculated as described in the manufacturer’s protocol as follows: [1 − (Acontrol − Asample)/(Acontrol − Abackground)] × 100. EDTA solution (Nippon Gene, Tokyo, Japan) was used as an ACE inhibitor.

IMP-1 = biological target: T2, IMP-1 (Serratia marcescens, UniProt P52699); experiment: Inhibition of IPM hydrolysis by purified IMP-1, Ki by Lineweaver-Burk plots; assay type: biochemical
T2 construct: made in house
Description: (§2) MBL (10 nM) was mixed with the inhibitors and incubated for 5 min at 30°C. IPM was added to reach a concentration of 150 μM, and the velocity of IPM hydrolysis was monitored at 298 nm. The assay was performed at 30°C using 10 mM HEPES (pH 7.5) buffer containing 200 mM NaCl and 50 μg/ml bovine serum albumin (BSA) for IMP-1, NDM-1, VIM-2, and SMB-1. For SFH-1 and L1, another 10 mM HEPES (pH 7.5) buffer containing 200 mM NaCl, 20 μM ZnSO4, and 50 μg/ml BSA was used.
(§3) Initial velocities (vo) were measured after varying the concentrations of IPM and inhibitors, and inverse velocities (1/vo) were plotted against inverse IPM concentrations […]. Lineweaver-Burk plots were constructed to obtain the inhibition constant (Ki) with the competitive inhibition model using the SigmaPlot 13 suite (Hulinks).

TLA-3 = experiment: Serine β-lactamase inhibition, nitrocefin hydrolysis by TLA-3; assay type: biochemical; conditions: nitrocefin 100 μM
Description: as §1

SMB-1 = experiment: In vitro inhibition assay, IPM hydrolysis by SMB-1; assay type: biochemical; conditions: even in the presence of 100 μM SFC
Description: as §2

[3] = test system: P. aeruginosa PAO1/pME-VIM-2; experiment: Susceptibility testing, VIM-2-producing P. aeruginosa PAO1; assay type: cell-based; conditions: Pseudomonas aeruginosa
Description: (§4) MICs were determined via the microdilution method according to the CLSI guidelines ([38]). In brief, 5 × 10^4 bacterial cells were inoculated in 100 μl of cation-adjusted Mueller-Hinton broth (Becton, Dickinson and Company, Franklin Lakes, NJ) containing the β-lactams and appropriately diluted inhibitors. The final concentration of DMSO was maintained at 2% in the assays. The tested plates were then incubated at 35°C for 16 to 20 h. The MIC value was determined as the lowest concentration of tested β-lactams where no bacterial growth was visibly observed. The optical density at 600 nm (OD600) value was measured using a plate reader for drawing the heat maps. The FIC index value was calculated using the following equation: FIC index=MIC of β-lactam with inhibitor/MIC of β-lactam alone+MIC of inhibitor with β-lactam/MIC of inhibitor alone

[4] = test system: Salmonella enterica serovar Typhimurium TA98 and TA100, E. coli WP2uvrA; experiment: Ames test (reverse mutation assay)
Description: Bacterial strains of Salmonella enterica serovar Typhimurium TA98 and TA100 as well as E. coli WP2uvrA were analyzed using the reverse mutation assay, which was performed by UBE Scientific Analysis Laboratory (Tokyo, Japan).

E. coli DH5α/pBC-NDM-1 = experiment: Susceptibility and checkerboard testing, NDM-1-producing E. coli; assay type: cell-based, Escherichia coli; conditions: for MIC: Escherichia coli
Description: as §4
(§5) Unless noted otherwise, the FIC index was defined as the lowest value among all obtained values. The synergistic effect was defined as the effect observed when the FIC index value was ≤0.5.

E. coli DH5α/pBC-IMP-1 = experiment: Susceptibility and checkerboard testing, IMP-1-producing E. coli; assay type: cell-based, Escherichia coli; conditions: for MIC: Escherichia coli
Description: as §4, §5

[5] = test system: Pseudomonas aeruginosa clinical isolates; experiment: Susceptibility testing, 17 P. aeruginosa clinical isolates; assay type: cell-based
Description: as §4

NDM-1 = biological target: T3, NDM-1 (Klebsiella pneumoniae, UniProt C7C422); experiment: Inhibition of IPM hydrolysis by purified NDM-1, Ki by Lineweaver-Burk plots; assay type: biochemical; conditions: IPM as substrate, competitive model, mean of three replicates; read-out: Inhibition constant Ki NDM-1
T3 construct: made in house
Description: as §2, §3

[6] = test system: E. coli BL21(DE3)/pET-DIM-1; experiment: Susceptibility testing, DIM-1-producing E. coli; assay type: cell-based; conditions: Escherichia coli
Description: as §4

OXA-48 = biological target: T4, OXA-48 (Klebsiella pneumoniae, UniProt Q6XEC0); experiment: Serine β-lactamase inhibition, nitrocefin hydrolysis by OXA-48; assay type: biochemical; conditions: nitrocefin 100 μM
T4 construct: made in house; host or cells: E. coli BL21(DE3)pLysS
Description: as §1

CMY-2 = biological target: T5, CMY-2 (Klebsiella pneumoniae, UniProt Q48434); experiment: Serine β-lactamase inhibition, nitrocefin hydrolysis by CMY-2; assay type: biochemical; conditions: nitrocefin 100 μM
T5 construct: made in house; host or cells: E. coli BL21(DE3)
Description: as §1

E. coli = experiment: Growth inhibition by inhibitor alone; assay type: cell-based, Escherichia coli; conditions: at least at 128 μg/ml
Description: as §4

L1 = biological target: T6, L1 (Stenotrophomonas maltophilia, UniProt P52700); experiment: In vitro inhibition assay, IPM hydrolysis by L1; assay type: biochemical; conditions: even in the presence of 100 μM SFC
T6 construct: made in house
Description: as §2

[7] = test system: IMP-type MBL-producing Enterobacteriaceae; experiment: Susceptibility testing, 19 IMP-type MBL-producing Enterobacteriaceae isolates; assay type: cell-based; conditions: for Isolates whose MPM MIC decreased to susceptible criteria (MIC ≤1 μg/ml): IMP-producing isolates
Description: as §4

[8] = read-out: MIC of MPM + inhibitor (8 μg/ml)
[9] = read-out: MIC of MPM + inhibitor (32 μg/ml)

T4 sequence (Q6XEC0 23-265, looked up, species assumed): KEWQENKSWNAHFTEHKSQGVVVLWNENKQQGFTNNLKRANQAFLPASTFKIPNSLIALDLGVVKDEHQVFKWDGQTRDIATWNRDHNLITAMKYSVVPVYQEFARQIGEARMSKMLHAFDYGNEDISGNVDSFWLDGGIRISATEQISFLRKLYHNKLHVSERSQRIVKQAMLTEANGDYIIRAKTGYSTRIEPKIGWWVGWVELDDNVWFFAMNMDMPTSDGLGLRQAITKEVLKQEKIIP
T5 sequence (Q48434 21-381, species assumed): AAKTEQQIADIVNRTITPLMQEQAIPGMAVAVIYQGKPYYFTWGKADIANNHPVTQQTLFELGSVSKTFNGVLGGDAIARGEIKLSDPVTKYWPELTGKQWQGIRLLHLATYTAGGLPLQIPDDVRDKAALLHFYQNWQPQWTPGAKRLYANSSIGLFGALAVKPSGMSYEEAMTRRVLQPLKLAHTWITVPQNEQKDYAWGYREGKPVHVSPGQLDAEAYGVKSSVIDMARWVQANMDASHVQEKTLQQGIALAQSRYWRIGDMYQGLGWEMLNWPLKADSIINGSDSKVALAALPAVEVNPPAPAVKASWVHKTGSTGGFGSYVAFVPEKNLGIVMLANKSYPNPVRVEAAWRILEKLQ
T2 sequence (P52699 19-246 limits assumed): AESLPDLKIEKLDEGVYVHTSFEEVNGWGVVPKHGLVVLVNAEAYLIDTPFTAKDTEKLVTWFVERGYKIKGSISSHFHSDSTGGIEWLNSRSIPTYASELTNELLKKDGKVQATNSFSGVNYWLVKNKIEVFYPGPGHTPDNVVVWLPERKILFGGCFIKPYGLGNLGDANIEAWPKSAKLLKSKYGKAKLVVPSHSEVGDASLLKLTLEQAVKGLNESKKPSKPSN
T6 sequence (P52700 34-290): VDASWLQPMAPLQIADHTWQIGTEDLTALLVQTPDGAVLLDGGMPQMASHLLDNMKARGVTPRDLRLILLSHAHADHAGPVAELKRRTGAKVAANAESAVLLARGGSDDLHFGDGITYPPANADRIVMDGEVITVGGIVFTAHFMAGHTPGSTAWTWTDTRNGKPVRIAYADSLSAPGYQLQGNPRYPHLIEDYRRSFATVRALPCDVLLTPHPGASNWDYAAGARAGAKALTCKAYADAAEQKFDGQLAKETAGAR
T1 sequence (P12821 30-1306): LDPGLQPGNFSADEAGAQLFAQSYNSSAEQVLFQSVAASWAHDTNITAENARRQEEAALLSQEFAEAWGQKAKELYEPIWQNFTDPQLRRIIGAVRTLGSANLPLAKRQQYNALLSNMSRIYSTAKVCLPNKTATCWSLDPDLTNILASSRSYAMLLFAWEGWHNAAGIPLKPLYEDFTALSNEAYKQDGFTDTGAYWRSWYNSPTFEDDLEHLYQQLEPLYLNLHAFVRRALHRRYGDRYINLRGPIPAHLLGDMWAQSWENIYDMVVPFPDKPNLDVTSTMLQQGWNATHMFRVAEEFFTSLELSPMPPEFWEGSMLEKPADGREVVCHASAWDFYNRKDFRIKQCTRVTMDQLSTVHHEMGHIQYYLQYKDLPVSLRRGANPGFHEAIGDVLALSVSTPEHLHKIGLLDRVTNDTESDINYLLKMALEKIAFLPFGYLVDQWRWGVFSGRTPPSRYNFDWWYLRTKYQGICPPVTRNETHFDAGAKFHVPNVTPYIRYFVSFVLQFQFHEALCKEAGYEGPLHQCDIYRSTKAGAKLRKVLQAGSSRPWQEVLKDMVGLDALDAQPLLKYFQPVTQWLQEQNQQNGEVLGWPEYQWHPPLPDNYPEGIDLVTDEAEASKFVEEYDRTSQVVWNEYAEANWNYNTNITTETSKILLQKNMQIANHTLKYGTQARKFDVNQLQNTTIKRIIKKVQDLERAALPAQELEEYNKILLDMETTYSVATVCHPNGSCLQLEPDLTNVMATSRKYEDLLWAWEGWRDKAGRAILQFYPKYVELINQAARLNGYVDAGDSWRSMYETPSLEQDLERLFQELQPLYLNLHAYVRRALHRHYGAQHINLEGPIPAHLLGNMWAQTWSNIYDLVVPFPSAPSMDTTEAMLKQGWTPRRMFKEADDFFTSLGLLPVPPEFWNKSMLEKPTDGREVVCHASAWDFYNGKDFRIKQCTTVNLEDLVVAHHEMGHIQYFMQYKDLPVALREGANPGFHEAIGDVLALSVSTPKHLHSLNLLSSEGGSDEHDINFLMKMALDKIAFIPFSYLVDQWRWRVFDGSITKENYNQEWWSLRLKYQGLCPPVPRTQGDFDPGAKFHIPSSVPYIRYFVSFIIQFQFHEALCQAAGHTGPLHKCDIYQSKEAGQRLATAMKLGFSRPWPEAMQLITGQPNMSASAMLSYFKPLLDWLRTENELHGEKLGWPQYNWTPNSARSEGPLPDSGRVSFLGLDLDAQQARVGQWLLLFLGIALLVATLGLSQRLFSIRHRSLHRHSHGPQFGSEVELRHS
T3 sequence (C7C422 29-270 limits assumed): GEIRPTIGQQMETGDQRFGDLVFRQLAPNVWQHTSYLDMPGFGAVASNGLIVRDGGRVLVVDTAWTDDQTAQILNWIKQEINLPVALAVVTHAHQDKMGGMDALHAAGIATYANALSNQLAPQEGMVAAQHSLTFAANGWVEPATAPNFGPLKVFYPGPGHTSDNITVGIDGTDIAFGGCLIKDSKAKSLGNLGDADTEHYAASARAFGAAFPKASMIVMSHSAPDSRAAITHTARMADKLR

Compound: Cc1oc(C)c(S(N)(=O)=O)c1C(=O)O [SFC, 2,5-dimethyl-4-sulfamoylfuran-3-carboxylic acid]
- Reduction of bacterial population [1]: more than 1,000 fold
- Inhibitory effect on ACE [2]: no inhibitory effect
- Ki (IMP-1): 0.22 µM
- Inhibitory effect against TLA-3 (class A) (TLA-3): nonexistent or insufficient
- Inhibition of IPM hydrolyzing activity of SMB-1 (SMB-1): did not inhibit
- MIC ([3]; PAO1, read-out: MIC of MPM + inhibitor (10 μg/ml)): 32 µg/mL
- MIC ([3]; PAO1, read-out: MIC of MPM + inhibitor (50 μg/ml)): 16 µg/mL
- Ames test, mutagenicity [4]: negative
- MIC meropenem + 2 μg/mL compound (E. coli DH5α/pBC-NDM-1; E. coli DH5α/pBC-NDM-1): 16 µg/mL
- Reduction in MPM MIC (E. coli DH5α/pBC-NDM-1; E. coli DH5α/pBC-NDM-1, 2 μg/ml compound): 4 fold
- MIC (E. coli DH5α/pBC-NDM-1; [8]): 2 µg/mL
- MIC (E. coli DH5α/pBC-NDM-1; [9]): ≤ 0.25 µg/mL
- FIC index (E. coli DH5α/pBC-NDM-1; checkerboard with MPM, E. coli DH5α/pBC-NDM-1, lowest value): 0.09
- MIC meropenem + 2 μg/mL compound (E. coli DH5α/pBC-IMP-1; E. coli DH5α/pBC-IMP-1): 0.063 µg/mL
- Reduction in MPM MIC (E. coli DH5α/pBC-IMP-1; E. coli DH5α/pBC-IMP-1, 2 μg/ml compound): 16 fold
- Reduction in MPM MIC (E. coli DH5α/pBC-IMP-1; E. coli DH5α/pBC-IMP-1, 10 μg/ml compound): 16 fold
- MIC (E. coli DH5α/pBC-IMP-1; [8]): 0.031 µg/mL
- MIC (E. coli DH5α/pBC-IMP-1; [9]): 0.031 µg/mL
- FIC index (E. coli DH5α/pBC-IMP-1; checkerboard with MPM, E. coli DH5α/pBC-IMP-1, lowest value): 0.06
- Drop of MPM MIC50 ([5]; 10 μg/ml SFC): 2 fold
- Drop of MPM MIC50 ([5]; 50 μg/ml SFC): 8 fold
- Ki (NDM-1): 9.82 µM
- MIC [6, 8]: 2 µg/mL
- MIC [6, 9]: 2 µg/mL
- Inhibitory effect against OXA-48 (class D) (OXA-48): nonexistent or insufficient
- Inhibitory effect against CMY-2 (class C) (CMY-2): nonexistent or insufficient
- Growth inhibition by SFC alone (E. coli): did not show growth inhibition
- Inhibition of IPM hydrolyzing activity of L1 (L1): did not inhibit
- Reduction of MPM MIC50 ([7]; 10 μg/ml SFC, IMP-producing Enterobacteriaceae): 128 fold
- Isolates whose MPM MIC decreased to susceptible criteria (MIC ≤1 μg/ml) ([7]; addition of 10 μg/ml SFC): 16/19
- Isolates whose MPM MIC decreased to susceptible criteria (MIC ≤1 μg/ml) ([7]; addition of 50 μg/ml SFC): 17/19
